pIC50: −log10 of the molar value. Activity calls are given as the source filed them. The rule behind the calls is not given here.
Key:
BaF3 [1] = experiment: Antitumor activity against mouse BaF3 cells expressing native EML4-ALK implanted in mouse assessed as tumor regression at 60 mg/kg, po administered once daily and measured after 8 days relative to control; type: functional; conditions: time 8 day
[2] = Average plasma concentration in CB-17/SCID mouse implanted with mouse BaF3 cells expressing EML4-ALK G1202R mutant at 60 mg/kg, po administered once daily for 7 days by LC-MS/MS analysis; type: ADME, organism-based; conditions: in vivo, 168 h, time 7 day
[3] = Toxicity in CB-17/SCID mouse implanted with ALK positive mouse BaF3 cells expressing EML4-ALK G1202R mutant assessed as effect on body weight at 60 mg/kg, po administered once daily and measured after 6 days; type: organism-based; conditions: in vivo, 144 h, time 6 day
[4] = Protein binding in human plasma at 600 mg, administered twice a day; type: ADME, cell-free; conditions: read-out: PPB (converted)
[5] = Protein binding in human plasma assessed as unbound fraction at 600 mg, administered twice a day; type: ADME, cell-free
in vitro = conditions: mouse, BaF3 cells
BaF3 [6] = experiment: animal or person; conditions: Mus musculus, BaF3, po, 192 h, read-out: TGI
BaF3 [7] = experiment: Antitumor activity against mouse BaF3 cells expressing native EML4-ALK implanted in mouse assessed as tumor growth inhibition at 50 mg/kg, po administered once daily and measured after 8 days relative to control; type: functional; conditions: BaF3, 192 h, time 8 day, read-out: TGI
[8] = Toxicity in CB-17/SCID mouse implanted with ALK positive mouse BaF3 cells expressing EML4-ALK G1202R mutant assessed as effect on body weight at 50 mg/kg, po administered once daily and measured after 6 days; type: organism-based; conditions: in vivo, 144 h, time 6 day
[9] = Protein binding in human plasma at 750 mg, administered once a day; type: ADME, cell-free; conditions: read-out: PPB (converted)
[10] = Protein binding in human plasma assessed as unbound fraction at 750 mg, administered once a day; type: ADME, cell-free
[11] = tested on: EML4-ALK (Homo sapiens), Q9UM73+Q9HC35 [L1152R]; conditions: BaF3, time 3-5 weeks
[12] = tested on: EML4-ALK (Homo sapiens), Q9UM73+Q9HC35 [L1152P]; conditions: BaF3, time 3-5 weeks
[13] = tested on: EML4-ALK (Homo sapiens), Q9UM73+Q9HC35 [F1174C]; conditions: BaF3, time 3-5 weeks
[14] = tested on: EML4-ALK (Homo sapiens), Q9UM73+Q9HC35 [L1198F]; conditions: BaF3, time 3-5 weeks
[15] = tested on: EML4-ALK (Homo sapiens), Q9UM73+Q9HC35 [G1202R]; conditions: BaF3, time 3-5 weeks
[16] = tested on: EML4-ALK (Homo sapiens), Q9UM73+Q9HC35 [S1206F]; conditions: BaF3, time 3-5 weeks
[17] = tested on: EML4-ALK (Homo sapiens), Q9UM73+Q9HC35 [S1206Y]; conditions: BaF3, time 3-5 weeks
[18] = tested on: EML4-ALK (Homo sapiens), Q9UM73+Q9HC35 [L1196M]; conditions: BaF3, dose 1000.0 nmol/L, time 3-5 weeks
[19] = tested on: EML4-ALK (Homo sapiens), Q9UM73+Q9HC35 [F1174C]; conditions: BaF3, dose 200.0 nmol/L, time 3-5 weeks
[20] = tested on: EML4-ALK (Homo sapiens), Q9UM73+Q9HC35 [F1174V]; conditions: BaF3, dose 200.0 nmol/L, time 3-5 weeks
[21] = tested on: EML4-ALK (Homo sapiens), Q9UM73+Q9HC35 [F1174I]; conditions: BaF3, dose 200.0 nmol/L, time 3-5 weeks
[22] = tested on: EML4-ALK (Homo sapiens), Q9UM73+Q9HC35 [S1206A]; conditions: BaF3, dose 200.0 nmol/L, time 3-5 weeks
[23] = tested on: EML4-ALK (Homo sapiens), Q9UM73+Q9HC35 [L1198F]; conditions: BaF3, dose 200.0 nmol/L, time 3-5 weeks
[24] = tested on: EML4-ALK (Homo sapiens), Q9UM73+Q9HC35 [L1198F]; conditions: BaF3, dose 500.0 nmol/L, time 3-5 weeks
[25] = tested on: EML4-ALK (Homo sapiens), Q9UM73+Q9HC35 [I1171N]; conditions: BaF3, dose 1000.0 nmol/L, time 3-5 weeks
[26] = tested on: EML4-ALK (Homo sapiens), Q9UM73+Q9HC35 [UNDEFINED MUTATION]; conditions: BaF3, dose 1000.0 nmol/L, time 3-5 weeks
[27] = tested on: EML4-ALK (Homo sapiens), Q9UM73+Q9HC35 [L1152R]; conditions: BaF3, dose 1000.0 nmol/L, time 3-5 weeks
[28] = tested on: EML4-ALK (Homo sapiens), Q9UM73+Q9HC35 [L1152P]; conditions: BaF3, dose 1000.0 nmol/L, time 3-5 weeks
[29] = tested on: EML4-ALK (Homo sapiens), Q9UM73+Q9HC35 [C1156Y]; conditions: BaF3, dose 1000.0 nmol/L, time 3-5 weeks
[30] = tested on: EML4-ALK (Homo sapiens), Q9UM73+Q9HC35 [F1174C]; conditions: BaF3, dose 1000.0 nmol/L, time 3-5 weeks
[31] = tested on: EML4-ALK (Homo sapiens), Q9UM73+Q9HC35 [F1174L]; conditions: BaF3, dose 1000.0 nmol/L, time 3-5 weeks
[32] = tested on: EML4-ALK (Homo sapiens), Q9UM73+Q9HC35 [F1174V]; conditions: BaF3, dose 1000.0 nmol/L, time 3-5 weeks
[33] = tested on: EML4-ALK (Homo sapiens), Q9UM73+Q9HC35 [V1180L]; conditions: BaF3, dose 1000.0 nmol/L, time 3-5 weeks
[34] = tested on: EML4-ALK (Homo sapiens), Q9UM73+Q9HC35 [L1198F]; conditions: BaF3, dose 1000.0 nmol/L, time 3-5 weeks
[35] = tested on: EML4-ALK (Homo sapiens), Q9UM73+Q9HC35 [G1202R]; conditions: BaF3, dose 1000.0 nmol/L, time 3-5 weeks
[36] = tested on: EML4-ALK (Homo sapiens), Q9UM73+Q9HC35 [D1203N]; conditions: BaF3, dose 1000.0 nmol/L, time 3-5 weeks
[37] = tested on: EML4-ALK (Homo sapiens), Q9UM73+Q9HC35 [S1206F]; conditions: BaF3, dose 1000.0 nmol/L, time 3-5 weeks
[38] = tested on: EML4-ALK (Homo sapiens), Q9UM73+Q9HC35 [S1206Y]; conditions: BaF3, dose 1000.0 nmol/L, time 3-5 weeks
[39] = tested on: EML4-ALK (Homo sapiens), Q9UM73+Q9HC35 [E1210K]; conditions: BaF3, dose 1000.0 nmol/L, time 3-5 weeks
[40] = tested on: EML4-ALK (Homo sapiens), Q9UM73+Q9HC35 [G1269A]; conditions: BaF3, dose 1000.0 nmol/L, time 3-5 weeks
BaF3 [41] = experiment: animal or person; conditions: Mus musculus, BaF3, po, 192 h, read-out: TGI; remark: listed apart in the source

For `CCc1cc2c(cc1N1CCC(N3CCOCC3)CC1)C(C)(C)c1[nH]c3cc(C#N)ccc3c1C2=O` [ALECTINIB], the Activity (BaF3 [1]) was 95%, the Cave [2] was 8.817 µM and the Activity [3] was “Non-Toxic”. It also gave a fraction unbound [4] of 0.003, a fraction unbound [5] of 0.003 and a pIC50 (in vitro) of 5.68. For the same compound, the IC90 (in vitro) was 7460 nM and the inhibition in vivo at 60 mg/kg (BaF3 [6]) was 0%.
With `Cc1cc(Nc2ncc(Cl)c(Nc3ccccc3S(=O)(=O)C(C)C)n2)c(OC(C)C)cc1C1CCNCC1` [CERITINIB] the inhibition in vivo at 50 mg/kg (BaF3 [7]) was 97%, the Activity [8] was “Non-Toxic” and the fraction unbound [9] was 0.028. It also gave a fraction unbound [10] of 0.028, an IC90 [11] of 1270 nM and an IC90 [12] of 1230 nM. For the same compound, the IC90 [13] was 229 nM, the IC90 [14] was 1320 nM and the IC90 [15] was 1040 nM. For the same compound, the IC90 [16] was 99 nM, the IC90 [17] was 99 nM and the inhibition [18] was “Active”. For the same compound, the inhibition [19] was “inactive”, the inhibition [20] was “inactive” and the inhibition [21] was “inactive”. The inhibition [22] was “inactive”, the inhibition [23] was “inactive” and the inhibition [24] was “inactive”. The inhibition [25] was “Active”, the inhibition [26] was “Active” and the inhibition [27] was “Active”. For the same compound, the inhibition [28] was “Active”, the inhibition [29] was “Active” and the inhibition [30] was “Active”. The inhibition [31] was “Active”, the inhibition [32] was “Active” and the inhibition [33] was “Active”. The inhibition [34] was “Active”, the inhibition [35] was “Active” and the inhibition [36] was “Active”. For the same compound, the inhibition [37] was “Active”, the inhibition [38] was “Active” and the inhibition [39] was “Active”. The inhibition [40] was “Active”, the pIC50 (in vitro) was 5.78 and the IC90 (in vitro) was 2840 nM. The inhibition in vivo at 50 mg/kg (BaF3 [41]) was 14%.

Source: ChEMBL document CHEMBL5696443 (Clin Cancer Res, 2016)
